Molecules are shown by their SMILES.

Chain of Histone acetyltransferase p300 (Q09472 whole entry): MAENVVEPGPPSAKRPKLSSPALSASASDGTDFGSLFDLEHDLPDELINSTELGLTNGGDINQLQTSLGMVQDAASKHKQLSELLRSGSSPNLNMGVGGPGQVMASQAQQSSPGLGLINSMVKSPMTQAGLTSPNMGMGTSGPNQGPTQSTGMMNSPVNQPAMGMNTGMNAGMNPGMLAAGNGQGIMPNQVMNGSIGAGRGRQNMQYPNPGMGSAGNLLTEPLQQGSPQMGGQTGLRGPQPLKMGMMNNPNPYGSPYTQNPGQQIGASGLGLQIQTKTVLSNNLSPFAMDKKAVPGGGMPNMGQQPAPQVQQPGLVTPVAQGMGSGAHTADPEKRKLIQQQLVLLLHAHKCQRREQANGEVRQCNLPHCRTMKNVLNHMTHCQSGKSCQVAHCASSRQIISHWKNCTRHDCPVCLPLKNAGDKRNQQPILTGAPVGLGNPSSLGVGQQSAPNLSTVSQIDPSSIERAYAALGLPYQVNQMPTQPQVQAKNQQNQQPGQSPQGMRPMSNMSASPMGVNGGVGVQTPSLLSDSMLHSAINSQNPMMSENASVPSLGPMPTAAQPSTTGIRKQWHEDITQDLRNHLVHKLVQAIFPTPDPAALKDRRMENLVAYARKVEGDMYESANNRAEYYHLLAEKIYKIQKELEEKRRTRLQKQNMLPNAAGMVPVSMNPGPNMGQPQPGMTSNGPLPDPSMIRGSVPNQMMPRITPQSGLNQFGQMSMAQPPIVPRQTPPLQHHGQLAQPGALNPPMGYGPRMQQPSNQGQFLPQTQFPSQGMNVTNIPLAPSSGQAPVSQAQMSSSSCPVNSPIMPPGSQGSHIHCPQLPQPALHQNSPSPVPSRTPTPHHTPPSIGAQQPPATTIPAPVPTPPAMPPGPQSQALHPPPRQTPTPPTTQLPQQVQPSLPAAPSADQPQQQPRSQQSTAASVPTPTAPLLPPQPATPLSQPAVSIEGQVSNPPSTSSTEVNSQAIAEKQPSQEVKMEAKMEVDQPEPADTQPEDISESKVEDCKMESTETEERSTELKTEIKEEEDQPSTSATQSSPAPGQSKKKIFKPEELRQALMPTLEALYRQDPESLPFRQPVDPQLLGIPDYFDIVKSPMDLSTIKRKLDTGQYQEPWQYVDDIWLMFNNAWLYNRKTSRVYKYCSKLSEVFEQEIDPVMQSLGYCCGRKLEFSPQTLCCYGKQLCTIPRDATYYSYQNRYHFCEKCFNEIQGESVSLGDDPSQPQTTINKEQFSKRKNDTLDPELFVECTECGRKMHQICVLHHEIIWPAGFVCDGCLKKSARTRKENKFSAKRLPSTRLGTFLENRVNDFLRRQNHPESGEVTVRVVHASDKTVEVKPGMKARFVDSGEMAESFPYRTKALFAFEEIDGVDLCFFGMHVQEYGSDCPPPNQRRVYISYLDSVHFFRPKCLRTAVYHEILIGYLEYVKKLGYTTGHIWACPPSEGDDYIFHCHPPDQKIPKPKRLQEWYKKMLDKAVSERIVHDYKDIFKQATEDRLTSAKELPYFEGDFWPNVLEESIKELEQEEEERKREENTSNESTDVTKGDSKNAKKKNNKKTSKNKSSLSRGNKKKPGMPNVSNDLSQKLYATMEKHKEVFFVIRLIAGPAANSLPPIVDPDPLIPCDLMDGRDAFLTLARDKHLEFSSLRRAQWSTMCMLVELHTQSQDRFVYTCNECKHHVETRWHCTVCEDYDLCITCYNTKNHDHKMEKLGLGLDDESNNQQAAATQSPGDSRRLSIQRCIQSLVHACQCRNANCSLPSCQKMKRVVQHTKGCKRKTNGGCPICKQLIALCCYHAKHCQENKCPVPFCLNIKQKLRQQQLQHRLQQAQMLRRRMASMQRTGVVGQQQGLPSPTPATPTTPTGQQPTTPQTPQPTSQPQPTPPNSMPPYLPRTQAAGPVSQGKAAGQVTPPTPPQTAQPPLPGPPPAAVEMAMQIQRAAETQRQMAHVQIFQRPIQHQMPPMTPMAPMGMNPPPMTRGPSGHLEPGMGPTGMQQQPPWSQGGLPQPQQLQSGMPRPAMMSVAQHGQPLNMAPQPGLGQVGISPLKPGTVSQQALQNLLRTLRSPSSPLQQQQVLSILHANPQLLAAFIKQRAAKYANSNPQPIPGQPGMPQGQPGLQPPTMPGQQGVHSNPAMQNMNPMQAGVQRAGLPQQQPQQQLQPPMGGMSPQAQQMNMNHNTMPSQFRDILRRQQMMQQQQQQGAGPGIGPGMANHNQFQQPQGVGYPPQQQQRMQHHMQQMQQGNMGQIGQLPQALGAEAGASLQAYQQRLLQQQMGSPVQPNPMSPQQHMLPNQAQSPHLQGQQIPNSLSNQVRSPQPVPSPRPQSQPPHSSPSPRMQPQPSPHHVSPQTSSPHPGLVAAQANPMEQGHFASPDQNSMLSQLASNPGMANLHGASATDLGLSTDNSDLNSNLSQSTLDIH

One assay has as its system MDA-MB-231. Nature of the assay: Antiproliferative activity against human MDA-MB-231 cells assessed as inhibition of cell proliferation at 10 uM incubated for 72 hrs by MTT assay relative to control. It is filed as functional.
Details: not given
Background: Tetrazolium dyes change colour on reduction, which living cells bring about.
The inhibition is the relative decrease from the control value, in per cent. With `COC(=O)c1ccc(CCCCn2cc(-c3ccc(Cn4cc(C)c(N)nc4=O)cc3)nn2)cc1`, the inhibition at 10 µM was over 50%.

In another assay the test system is NCI-H520. Nature of the assay: Antiproliferative activity against human NCI-H520 cells assessed as inhibition of cell growth incubated for 72 hrs by MTT assay. It is filed as functional, cell-based. As to conditions: NCI-H520, 72 h.
The term IC50 denotes the concentration needed to halve the response being measured. `COC(=O)c1ccc(CCCCn2cc(-c3ccc(Cn4cc(F)c(N)nc4=O)cc3)nn2)cc1`: the IC50 turned out to be 23200 nM.

Take `COC(=O)c1ccc(CCCCn2cc(-c3ccc(Cn4ccc(N)nc4=O)cc3)nn2)cc1`: the IC50 amounted to 12200 nM.

The next assay has as its target Histone acetyltransferase p300 (Homo sapiens, UniProt Q09472).
Details: not given
For the molecule `COC(=O)c1ccc(CCCCn2cc(-c3ccc(Cn4cc(F)c(N)nc4=O)cc3)nn2)cc1`, the IC50 was 370 nM.

`CCOC(=O)CCCCCn1cc(Cn2cc(F)c(N)nc2=O)nn1`: half-maximal inhibition (IC50) required 800 nM.

`Nc1ccn(Cc2cn(CCCCc3ccc(C(=O)O)cc3)nn2)c(=O)n1` showed an IC50 of 4570 nM.

`CCOC(=O)CCCCCCn1cc(-c2ccc(Cn3cnc(N)nc3=O)cc2)nn1` displayed a half-maximal inhibitory concentration (IC50) of 650 nM.

Molecule `CCOC(=O)CCCCCCn1cc(-c2ccc(Cn3cnc4c(N)ncnc43)cc2)nn1` displayed an IC50 of 9900 nM.

`CCOC(=O)CCCn1cc(-c2ccc(Cn3ccc(N)nc3=O)cc2)nn1`: the half-maximal inhibitory concentration (IC50) came to 360 nM.

Molecule `COC(=O)c1ccc(CCCCn2cc(-c3ccc(Cn4cnc(N)nc4=O)cc3)nn2)cc1` registered an IC50 of 360 nM.

`Nc1ccn(Cc2ccc(-c3cn(CCCCc4ccc(C(=O)O)cc4)nn3)cc2)c(=O)n1`: half-maximal inhibition (IC50) was put at 1140 nM.

As to `CCOC(=O)CCCCn1cc(-c2ccc(Cn3cnc(N)nc3=O)cc2)nn1`, the 50% inhibitory concentration (IC50) is 880 nM.

Molecule `CCOC(=O)CCCCCn1cc(Cn2cc(C)c(N)nc2=O)nn1` displayed an IC50 of 1100 nM.

`CCOC(=O)CCCCCCn1cc(-c2ccc(Cn3ccc(=O)[nH]c3=O)cc2)nn1` gave an IC50 of 2000 nM.

For the molecule `CCOC(=O)CCCCn1cc(Cn2cnc(N)nc2=O)nn1`, the midpoint of inhibition, the IC50, lay at 7690 nM.

Turning to `Nc1nc(=O)n(Cc2ccc(-c3cn(CCCCc4ccc(C(=O)O)cc4)nn3)cc2)cc1F`, the half-inhibitory concentration (IC50) was 250 nM.

As to `CCOC(=O)CCCCCCn1cc(-c2ccc(Cn3cc(F)c(N)nc3=O)cc2)nn1`, the IC50 is 2600 nM.

In the case of `Nc1ccn(Cc2ccc(-c3cn(CCCCC(=O)O)nn3)cc2)c(=O)n1`, the IC50 is 240 nM.

`Nc1ccn(Cc2ccc(-c3cn(CCCC(=O)O)nn3)cc2)c(=O)n1` came in with a 50% inhibitory concentration (IC50) of 560 nM.

Take `CCOC(=O)CCCn1cc(-c2ccc(Cn3cnc(N)nc3=O)cc2)nn1`: half-maximal inhibition (IC50) was put at 4590 nM.

In the case of `COC(=O)c1ccc(CCCCn2cc(-c3ccc(Cn4ccc(N)nc4=O)cc3)nn2)cc1`, the half-maximal inhibitory concentration (IC50) was determined as 180 nM.

In turn, `Nc1ccn(Cc2ccc(-c3cn(CCCCCC(=O)O)nn3)cc2)c(=O)n1` gave an IC50 of 4120 nM.

Turning to `CCOC(=O)CCCCCCn1cc(-c2ccc(Cn3cc(C)c(N)nc3=O)cc2)nn1`, the concentration for half-maximal inhibition (IC50) turned out to be 770 nM.

In turn, `CCOC(=O)CCCCCn1cc(Cn2ccc(N)nc2=O)nn1` gave an IC50 of 7800 nM.

Molecule `CCOC(=O)CCCCCn1cc(-c2ccc(Cn3cnc(N)nc3=O)cc2)nn1` had a 50% inhibitory concentration (IC50) of 530 nM.

For `CCOC(=O)CCCCn1cc(-c2ccc(Cn3ccc(N)nc3=O)cc2)nn1`, half-maximal inhibition (IC50) was put at 560 nM.

As for `CCOC(=O)CCCCCCn1cc(-c2ccc(Cn3ccc(N)nc3=O)cc2)nn1`, half-maximal inhibition (IC50) was put at 640 nM.

Molecule `CCOC(=O)CCCCCn1cc(Cn2cnc(N)nc2=O)nn1` gave a concentration for half-maximal inhibition (IC50) of 480 nM.

In turn, `Nc1ccn(Cc2ccc(-c3cn(CCCCCCC(=O)O)nn3)cc2)c(=O)n1` came in with an IC50 of 960 nM.

Turning to `CCOC(=O)CCCCCCn1cc(Cn2cnc(N)nc2=O)nn1`, the IC50 came out at 430 nM.

Molecule `COC(=O)c1ccc(CCCCn2cc(-c3ccc(Cn4cc(C)c(N)nc4=O)cc3)nn2)cc1` returned a half-maximal inhibitory concentration (IC50) of 240 nM.

In turn, `CCOC(=O)CCCCCn1cc(-c2ccc(Cn3ccc(N)nc3=O)cc2)nn1` gave an IC50 of 600 nM.

The values are drawn from ChEMBL document CHEMBL5625280, “Discovery of novel nucleoside derivatives as selective lysine acetyltransferase p300 inhibitors for cancer therapy” (Bioorg Med Chem Lett, 2024).
